# Results reported in PMC1257591, “In Vitro Inhibition of Human Hepatic and cDNA-Expressed Sulfotransferase Activity with 3-Hydroxybenzo[a]pyrene by Polychlorobiphenylols” (Environmental Health Perspectives, 2005).
# Where “and” joins values, the source holds several entries; their conditions need not be identical. Equal entries are not always repeated. Where two headings read alike, the source gives them in different places.
# What was measured:
# SULT1A1 = test system: SULT1A1; design: method as in Ma et al. 2003; settings: ref Ma et al. 2003; cited from earlier work
# SULT1E1 [1] = test system: SULT1E1; design: method as in Ma et al. 2003; settings: ref Ma et al. 2003; cited from earlier work
# SULT1A3 [2] = test system: SULT1A3; design: method as in Ma et al. 2003; settings: ref Ma et al. 2003; cited from earlier work
# [3] = target: HL cytosol sulfotransferase (Homo sapiens, UniProt P50225); assay: Kinetics of 3-OH-BaP sulfonation by human liver cytosol (fluorimetric assay of BaP-3-SO4 formation); assay type: biochemical
# Sequence of HL cytosol sulfotransferase (P50225 whole entry): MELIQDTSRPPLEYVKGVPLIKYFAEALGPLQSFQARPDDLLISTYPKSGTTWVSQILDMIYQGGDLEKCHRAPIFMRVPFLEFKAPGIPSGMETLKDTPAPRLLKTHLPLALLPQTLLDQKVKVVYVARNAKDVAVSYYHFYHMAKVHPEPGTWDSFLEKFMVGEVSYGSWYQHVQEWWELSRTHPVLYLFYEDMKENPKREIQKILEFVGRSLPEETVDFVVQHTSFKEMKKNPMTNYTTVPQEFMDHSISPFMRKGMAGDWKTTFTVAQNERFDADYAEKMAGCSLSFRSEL
# Procedure: F.P. Guengerich (Vanderbilt University) kindly donated the samples of human liver, which were procured from organ donors ([Guengerich 1995]). We prepared liver cytosolic fractions from four livers by standard methods and stored aliquots at −80°C until use ([Wang et al. 2004]). We used three or four of these cytosol fractions in each experiment.
# (§1) We determined SULT activity with 3-OH-BaP as substrate by a fluorimetric assay of BaP-3-SO4 product formation, as described previously ([Wang et al. 2004]). […] Duplicate tubes were prepared for each incubation condition. We examined the kinetics of sulfonation in three liver cytosol fractions by systematically varying the concentration of 3-OH-BaP or PAPS. When the variable substrate was 3-OH-BaP, we used 12 concentrations in the range from 0.035 to 2.00 μM, and the concentration of PAPS was kept constant at 10 μM. When we varied PAPS, we used 7 concentrations from 0.157 to 10.0 μM and kept the concentration of 3-OH-BaP constant at 0.100 μM.
# (§2) We calculated the enzyme kinetic parameters from studies with variable concentrations of 3-OH-BaP using nonlinear regression analysis and GraphPad 4.0 software (GraphPad Software, San Diego, CA). We selected the built-in Michaelis-Menten equation for most analyses. Where we found evidence of 3-OH-BaP substrate inhibition, we fit the data into an equation derived from a two-substrate model ([Zhang et al. 1998]): […]
# (§3) This equation denoted the constant for binding of the first substrate (S) molecule as Km and the second substrate molecule as Ki. V1 is the maximum rate for the noninhibitory substrate concentration range, and V2 is the minimum rate in the inhibitory substrate concentration range
# SULT1A1*2 [4] = target: T1, SULT1A1*2 (Homo sapiens, UniProt P50225, R213H); assay: Kinetics of 3-OH-BaP sulfonation by expressed SULT1A1*2; assay type: biochemical
# T1 construct: purchased PanVera (Madison, WI); host or cells: Sf-9
# T1 sequence (P50225 whole entry R213H): as the sequence (P50225 whole entry) above, with R213H counted along it
# Excerpt: (§4) The expression of human SULT1A1*1, SULT1A3, SULT1B1, and SULT1E1 in Escherichia coli has been described previously ([Dajani et al. 1998]; [Wang et al. 1998]). We grew E. coli cells containing the respective sulfotransferase genes as described previously ([Falany et al. 1990], [1994]), and prepared 100,000g supernatant fractions for use in inhibition studies and for partial purification of the SULT enzymes. We purchased expressed SULT1A1*2 cytosolic extract from PanVera (Madison, WI) and used it as supplied.
# as §1
# We determined the kinetic parameters for 3-OH-BaP sulfonation by partially purified preparations of the cDNA-expressed SULT isozymes under incubation conditions similar to those used for liver cytosol. For SULT1A1*1 and -1A1*2, we used seven substrate concentrations in the range from 5 to 100 nM; for SULT1E1 we used […] 3-OH-BaP concentrations from 15.6 to 1,000 nM; and for SULT1A3 and 1B1 we used seven concentrations of 3-OH-BaP from 0.25 to 5.0 μM.
# as §2, §3
# SULT1A1*1 [5] = target: T2, SULT1A1*1 (Homo sapiens, UniProt P50225); assay: Kinetics of 3-OH-BaP sulfonation by partially purified cDNA-expressed SULT1A1*1; assay type: biochemical
# T2 construct: made in house; host or cells: Escherichia coli
# Excerpt: as §4
# (§5) The 100,000g supernatant fractions of SULT1A1*1, SULT1A3, SULT1B1, and SULT1E1 were partially purified by chromatographic methods ([Falany et al. 1990], [1994]). […] We analyzed active fractions by SDS-PAGE ([Laemmli 1970]) to assess the purity of each SULT enzyme. We stained the gels with Coomassie R-250 reagent and determined the percentage of protein present as each respective SULT enzyme by scanning densitometry.
# (§6) We determined SULT activity with 3-OH-BaP as substrate by a fluorimetric assay of BaP-3-SO4 product formation, as described previously ([Wang et al. 2004]). […]
# (§7) We determined the kinetic parameters for 3-OH-BaP sulfonation by partially purified preparations of the cDNA-expressed SULT isozymes under incubation conditions similar to those used for liver cytosol. […]
# SULT1A3 [6] = target: T3, SULT1A3 (Homo sapiens, UniProt P0DMM9); assay: Kinetics of 3-OH-BaP sulfonation by partially purified cDNA-expressed SULT1A3; assay type: biochemical; settings: concentration range up to 5 μM
# T3 construct: made in house; host or cells: Escherichia coli
# T3 sequence (P0DMM9 whole entry): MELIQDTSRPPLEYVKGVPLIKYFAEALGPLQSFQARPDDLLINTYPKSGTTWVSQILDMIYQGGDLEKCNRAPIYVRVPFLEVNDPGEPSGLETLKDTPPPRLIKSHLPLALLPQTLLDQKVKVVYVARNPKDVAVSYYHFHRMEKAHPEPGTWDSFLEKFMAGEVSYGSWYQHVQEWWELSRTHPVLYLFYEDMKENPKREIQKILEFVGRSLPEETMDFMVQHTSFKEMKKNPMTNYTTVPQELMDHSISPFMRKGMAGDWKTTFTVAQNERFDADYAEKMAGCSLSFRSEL
# Excerpt: as §4, §5, §6, §7
# SULT1B1 [7] = target: T4, SULT1B1 (Homo sapiens, UniProt O43704); assay: Kinetics of 3-OH-BaP sulfonation by partially purified cDNA-expressed SULT1B1; assay type: biochemical; settings: concentration range up to 5 μM
# T4 construct: made in house; host or cells: Escherichia coli
# T4 sequence (O43704 whole entry): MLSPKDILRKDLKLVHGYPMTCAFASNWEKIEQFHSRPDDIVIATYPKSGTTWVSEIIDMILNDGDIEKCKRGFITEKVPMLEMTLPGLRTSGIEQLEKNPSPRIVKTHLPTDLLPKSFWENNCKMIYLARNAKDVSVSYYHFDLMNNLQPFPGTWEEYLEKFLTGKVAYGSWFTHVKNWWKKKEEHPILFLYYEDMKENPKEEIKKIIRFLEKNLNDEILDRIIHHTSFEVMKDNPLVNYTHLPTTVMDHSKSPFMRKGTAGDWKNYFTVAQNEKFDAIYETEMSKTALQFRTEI
# Excerpt: as §4, §5, §6, §7
# SULT1E1 [8] = target: T5, SULT1E1 (Homo sapiens, UniProt P49888); assay: Kinetics of 3-OH-BaP sulfonation by partially purified cDNA-expressed SULT1E1; assay type: biochemical
# T5 construct: made in house; host or cells: Escherichia coli
# T5 sequence (P49888 1-294): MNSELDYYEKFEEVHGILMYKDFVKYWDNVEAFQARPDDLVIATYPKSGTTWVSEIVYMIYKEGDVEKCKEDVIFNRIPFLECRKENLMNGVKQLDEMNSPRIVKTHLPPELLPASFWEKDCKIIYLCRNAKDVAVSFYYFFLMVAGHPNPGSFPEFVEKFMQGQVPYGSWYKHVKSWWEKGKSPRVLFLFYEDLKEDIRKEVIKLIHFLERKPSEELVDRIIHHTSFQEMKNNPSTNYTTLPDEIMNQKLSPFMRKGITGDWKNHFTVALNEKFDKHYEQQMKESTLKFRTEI
# Excerpt: as §4, §5, §6, §7
# [9] = target: HL cytosol 3-OH-BaP sulfotransferase (Homo sapiens, UniProt P50225); assay: Kinetics of 3-OH-BaP sulfotransferase inhibition by 4′-OH-CB112 in HL cytosol; assay type: biochemical
# Sequence of HL cytosol 3-OH-BaP sulfotransferase (P50225 whole entry): as the sequence (P50225 whole entry) above
# Procedure: To study the type of inhibition produced by OH-PCBs, we used 4′-OH-CB112 (B5) as a model inhibitor. We prepared four sets of assay tubes containing HL cytosol and varying amounts of 3-OH-BaP from 35 to 150 nM: one set (control) contained no 4′-OH-CB112; the other sets contained 0.25 μM, 0.5 μM, or 1.0 μM 4′-OH-CB112.
# (§8) We calculated the effects of OH-PCBs on 3-OH-BaP SULT activity as percentage inhibition compared with the controls without an inhibitor. We obtained IC50 values by fitting log OH-PCB concentration and percent control activity to a sigmoidal curve. We examined the relationships between IC50 and physicochemical properties of the OH-PCBs by linear correlation analysis. We calculated the inhibitory constant (Ki) from the kinetic studies with 4′-OH-CB112 by means of Dixon plots and plots of Km/Vmax against inhibitor concentration ([Cornish-Bowden 1995]).
# SULT1A1*1 [10] = target: T2, SULT1A1*1; assay: Inhibition of 3-OH-BaP sulfotransferase activity by OH-PCBs with cDNA-expressed SULT1A1*1; assay type: biochemical; settings: mean of duplicates, read-out: IC50 SULT1A1*1
# Excerpt: as §4, §1
# (§9) For each OH-PCB, we examined the concentration dependence of inhibition with three liver cytosol fractions, as well as with cytosol fractions from the E. coli expressing SULT1A1*1, SULT1A3, SULT1B1, and SULT1E1, and the purchased Sf-9 cytosol fraction (PanVera, Madison, WI) containing SULT1A1*2. For studies with HL cytosol, SULT1A1*1, and SULT1E1, we examined two concentrations of 3-OH-BaP, 0.1 μM and 1.0 μM.
# as §8
# SULT1A1*2 [11] = target: T1, SULT1A1*2; assay: Inhibition of 3-OH-BaP sulfotransferase activity by OH-PCBs with expressed SULT1A1*2; assay type: biochemical; settings: 0.1 μM 3-OH-BaP; mean of duplicates; read-out: IC50 SULT1A1*2
# Excerpt: as §4, §1, §9, §8
# SULT1E1 [12] = target: T5, SULT1E1; assay: Inhibition of 3-OH-BaP sulfotransferase activity by OH-PCBs with cDNA-expressed SULT1E1; assay type: biochemical; settings: mean of duplicates, read-out: IC50 SULT1E1
# Excerpt: as §4, §1, §9, §8
# SULT1B1 [13] = target: T4, SULT1B1; assay: Inhibition of 3-OH-BaP sulfotransferase activity by OH-PCBs with cDNA-expressed SULT1B1; assay type: biochemical; settings: 1.0 μM 3-OH-BaP; mean of duplicates; read-out: IC50 SULT1B1
# Excerpt: as §4, §1, §9, §8
# SULT1A3 [14] = target: T3, SULT1A3; assay: Inhibition of 3-OH-BaP sulfotransferase activity by 50 μM OH-PCBs with cDNA-expressed SULT1A3; assay type: biochemical; settings: 50 μM OH-PCB; 1.0 μM 3-OH-BaP
# Excerpt: as §4, §1, §9, §8
# [15] = HL 2 cytosol (heterozygous SULT1A1*1/*2)
# [16] = HL 3 cytosol (homozygous SULT1A1*2)
smiles,measurement,setting,value
Oc1ccc2ccc3cccc4ccc1c2c34 [1-hydroxypyrene],Km,SULT1A1,0.008 µM
same,Km,SULT1E1 [1],0.021 µM
same,Km,SULT1A3 [2],0.8 µM
"Oc1ccc2ccc3c4ccccc4cc4ccc1c2c43 [Compound 3-OH-BaP, 3-hydroxybenzo[a]pyrene]",V1,"[3]; HL 1 cytosol (homozygous SULT1A1*1), maximum rate, noninhibitory substrate range",121 pmol/min/mg protein
same,V2,"[3]; HL 1 cytosol (homozygous SULT1A1*1), minimum rate, inhibitory substrate range",2 pmol/min/mg protein
same,V1,[3]; [15],93.0 pmol/min/mg protein
same,V2,[3]; [15],38.50 pmol/min/mg protein
same,V1,[3]; [16],94 pmol/min/mg protein and 94.4 pmol/min/mg protein
same,V2,[3]; [16],31.0 pmol/min/mg protein
same,3-OH-BaP concentration resulting in a decrease in activity (substrate inhibition),[3]; HL cytosol,> 0.15 µM
same,V1,"[3]; HL cytosol, mean ± SD of three livers",102 ± 15.8 pmol/min/mg protein
same,V1,SULT1A1*2 [4]; expressed SULT1A1*2,"4,400 pmol/min/mg protein"
same,V2,SULT1A1*2 [4]; expressed SULT1A1*2,290 pmol/min/mg protein
same,Ki,"SULT1A1*2 [4]; expressed SULT1A1*2, substrate inhibition",0.16 µM
same,3-OH-BaP concentration showing substrate inhibition,SULT1A1*1 [5],> 0.15 µM
same,substrate inhibition,SULT1A3 [6],did not exhibit substrate inhibition
same,substrate inhibition,SULT1B1 [7],did not exhibit substrate inhibition
same,3-OH-BaP concentration showing substrate inhibition,SULT1E1 [8],> 0.15 µM
same,Vmax (3-OH-BaP sulfotransferase activity),"[9]; 0 μM B5, mean ± SD n = 3",69.1 ± 8.0 B pmol/min/mg protein
"Oc1ccc(-c2c(Cl)c(Cl)cc(Cl)c2Cl)cc1Cl [Compound B5, 4′-OH-CB112]",IC50,SULT1A1*1 [10]; 0.1 μM 3-OH-BaP,1.17 µM
same,IC50,SULT1A1*1 [10]; 1.0 μM 3-OH-BaP,42.5 µM
same,IC50,SULT1A1*2 [11],1.48 µM
same,IC50,SULT1E1 [12]; 0.1 μM 3-OH-BaP,5.35 µM
same,IC50,SULT1E1 [12]; 1.0 μM 3-OH-BaP,23.2 µM
same,IC50,SULT1B1 [13],86.5 µM
same,inhibition of 3-OH-BaP sulfonation by SULT1A3,SULT1A3 [14],did not inhibit
same,type of inhibition,[9]; 3-OH-BaP 35 to 150 nM,noncompetitive
same,Vmax (3-OH-BaP sulfotransferase activity),"[9]; in presence of 0.25 μM B5, two livers",56.3 ± 6.0 B pmol/min/mg protein
same,Vmax (3-OH-BaP sulfotransferase activity),"[9]; in presence of 0.5 μM B5, n = 3",41.2 ± 3.3 C pmol/min/mg protein
same,Vmax (3-OH-BaP sulfotransferase activity),"[9]; in presence of 1.0 μM B5, n = 3",33.3 ± 3.2 D pmol/min/mg protein
"Nc1ncnc2c1ncn2[C@@H]1O[C@H](COP(=O)(O)OS(=O)(=O)O)[C@@H](OP(=O)(O)O)[C@H]1O [PAPS, 3′-phosphoadenosine 5′-phosphosulfate]",Vmax (varying PAPS),"[3]; HL cytosol, 0.1 μM 3-OH-BaP, varying PAPS, mean ± SD n = 3",48 ± 2 pmol/min/mg protein
same,Km,"[3]; HL cytosol, 0.1 μM 3-OH-BaP, varying PAPS, mean ± SD n = 3, read-out: apparent Km for PAPS",0.56 ± 0.09 µM
same,Vmax (varying PAPS),"SULT1A1*2 [4]; expressed SULT1A1*2, 0.1 μM 3-OH-BaP, varying PAPS",684 pmol/min/mg protein
same,Km,"SULT1A1*2 [4]; expressed SULT1A1*2, 0.1 μM 3-OH-BaP, varying PAPS, read-out: apparent Km for PAPS",0.32 µM
